Patent US11506670B2, “Method of genome-wide direct identification of electrophile-sensing targets” (Cornell University, priority 2018, dated 2022)
Where a SMILES comes first, the peptide text is derived from it. The star is where a group is joined. Cbz = O=C(OCc1ccccc1)*

How the values were obtained:
[1] = Chemical stability of HNE(alkyne); type: physicochemical; conditions: air
Method: (iv) Isolate the pure product via flash chromatography using hexanes: Et20 (4:1 v/v) as eluent (Rf=0.5 in hexanes: Et2O 4:1). […] The purified material should be characterized promptly and during this time may be stored under Ar at room temperature. For long-term storage, HNE(alkyne) should be stored as one-shot aliquots in DMSO at −80° C. and must be used immediately once thawed.

γ-H2AX [2] = assay: T-REX in zebrafish embryos, whole-mount γ-H2AX immunofluorescence; type: in vivo, zebrafish (Danio rerio); conditions: 3 h post light exposure
Method: (§1) Fertilized eggs at the 1-2 cell stage from casper zebrafish were injected with mRNA (1.6 mg/ml) into the yolk sack. Immediately after injection, embryos were pooled, and separated into two petri dishes (10 cm) filled with 30 mL 10% Hank's salt solution with methylene blue and penicillin (100 U/mL)/streptomycin (100 μg/ml). To one set was added the HaloTag-targetable photocaged precursor to HNE (Ht-PreHNE, hereafter) (<15 μM) and the other DMSO in the dark. Embryos were maintained at 28° C. in the dark for 28 h then they were washed in 10% Hank's solution with no methylene blue/antibiotic (3 times for 30 min each). Embryos were moved to 6-well plates. Half of the embryos (Ht-preHNE-treated or -untreated) were irradiated with UV light (5 min), and the other half of each set was not irradiated. Embryos were left for 8 h at which point they were euthanized, washed with cold 1×DPBS and dechorionated (and deyolked if protein analysis was to be undertaken).
DDR preconditioning occurs in zebrafish embryos. […] Subsequently, the fish were fixed and γ-H2AX levels were measured using whole-mount immunofluorescence.

PTEN = target: T1, PTEN (Homo sapiens, UniProt P60484); assay: InPAkt FRET biosensor assay of PIP3 after PTEN-targeted T-REX; type: cell-based
T1 construct: host or cells: HEK-293
T1 sequence (P60484 whole entry): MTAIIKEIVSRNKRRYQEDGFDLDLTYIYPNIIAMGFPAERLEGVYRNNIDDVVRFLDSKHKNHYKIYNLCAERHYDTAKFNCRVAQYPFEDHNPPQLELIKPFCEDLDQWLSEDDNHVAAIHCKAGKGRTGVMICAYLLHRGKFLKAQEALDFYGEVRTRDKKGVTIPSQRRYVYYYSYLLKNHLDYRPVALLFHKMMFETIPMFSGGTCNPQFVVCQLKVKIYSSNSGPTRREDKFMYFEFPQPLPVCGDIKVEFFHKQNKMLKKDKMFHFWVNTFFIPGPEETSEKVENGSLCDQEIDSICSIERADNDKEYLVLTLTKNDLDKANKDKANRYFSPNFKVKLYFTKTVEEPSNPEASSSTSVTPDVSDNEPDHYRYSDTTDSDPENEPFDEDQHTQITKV
Method: (ii) Transfect each plate with 1000 ng of Halo-PTEN and 1000 ng of InPAkt reporter plasmid. Transfect with TransIT-2020 following the manufacturer's protocol.
(iv) Treatment of cells with T-REX™ delivery photocaged precursor, photo-uncaging and cell fixing. Treat the cells with photocaged precursor as described in Section 2, Step 39A. The amounts of reagents used should be scaled up for 4×35 mm adherent culture dish.
(v) Irradiate the cells with UV light only for 3 min. After shining light on the sample. Incubate the plates at 37° C. for 10 hours. Longer irradiation time will result in photobleaching of the FRET reporter proteins.
(vi) Imaging and data analysis. […] Blue laser (408 nm) is used for excitation. Record the signals in cyan channel (463-498 nm) and yellow channel (525-620 nm).
(vii) Analyse the images using ImageJ software (NIH). To do this, determine the average cyan and yellow fluorescence intensity for each cell by drawing a free hand circle around the image. Repeat this for each condition such that 150-200 cells were analyzed each time from multiple different frames. Calculate the ratio of mean yellow to mean cyan fluorescence intensity for each condition, then plot these values and analyse the results using prism. To get reliable results, it is important to collect images from at least 150 individual cells per condition.

[3] = system: Ube2V2 ubiquitination and cellular Ub pools; assay: Ubiquitination analysis by IP, K63-TUBE pulldown and western blot in HEK293T cells; type: cell-based, human; conditions: for amount of ubiquitinated-Ube2V2 formed upon targeted-HNEylation: proteasome inhibitor treatment with T-REX
Method: Cells were lysed in 1×RIPA buffer containing in final concentrations 1× Protease inhibitor, 1 mM sodium orthovanadate and 1 mM PMSF, by rapid freeze-thaw (×3). Cell debris was removed and the supernatant was collected after centrifugation at 18,000×g for 20 min at 4° C. Protein concentration was determined using Bradford assay. 30-50 μg of total lysates were subjected to SDS-PAGE and the gel was transferred onto a PVDF membrane at 100 V for 1 h at 4° C. or at 40 V overnight at 4° C. Membrane was blocked with 10% milk and probed with various antibodies at the indicated dilutions (Table 4, above).
HEK 293T cells were seeded in 2×60 cm^2 plates. After the cells reached 60% confluence (˜18-24 h), the old media was replaced with 8 mL of fresh complete media. Cells were transfected with 7.5 μg of the designated Halo clone and 30 μL PEI (1 mg/mL) in 600 μL in Opti-MEM media for 24-36 h after which the cells were treated with 25 μM Ht-PreHNE for 2.5 h. Rinsing and light shining protocol were as described above. Cells were harvested, pooled, washed twice with chilled 1×DPBS and flash frozen. Cell lysis was performed in 100-200 μL per 1.5×10^6 cells of either: lysis buffer [containing in final concentrations 50 mM HEPES (pH 7.6), 150 mM NaCl, 1% Nonidet P-40 and 1× Roche cOmplete, mini, EDTA-free protease inhibitor cocktail] for Flag pull down; or RIPA buffer [containing in final concentrations 50 mM HEPES (pH 7.6), 150 mM NaCl, 1% Nonidet P-40, 0.1% SDS, 0.25% sodium deoxycholate, and 1× Roche cOmplete, mini, EDTA-free protease inhibitor cocktail] for HA pull down, followed by rapid freeze-thaw cycles (×3). Lysate was clarified by centrifugation at 18,000×g for 10 min at 4° C. Total protein concentration was determined using Bradford assay with BSA as standard. The lysate was subsequently diluted to 2 mg/mL with binding buffer containing in final concentrations 50 mM HEPES (pH 7.6), 150 mM NaCl, 1× Roche cOmplete, mini, EDTA-free protease inhibitor cocktail, and 0.1% Tween-20. This diluted lysate was subjected to either 50-100 μL bed volume of ANTI-FLAG® M2 affinity gel (A2220, Sigma) or monoclonal anti-HA-agarose (clone HA-7, A2095, Sigma) that had been pre-equilibrated with the binding buffer above. The sample was incubated with beads for 2-3 h at 4° C. by end-over-end rotation after which time the supernatant was removed post-centrifugation at 1000×g (anti-FLAG pull down) or 5000×g (anti-HA pull down) for 3 min. The beads were washed three times at 4° C. with 500 μL wash buffer containing in final concentrations 50 mM HEPES (pH 7.6), 150 mM NaCl, 1× Roche cOmplete, mini, EDTA-free protease inhibitor cocktail, and 0.1% Tween-20, using end-over-end rotation over 10 min during each wash. The bound protein was eluted by either incubating with 0.15 mg/mL 3× flag peptide for 2 h at 4° C. (anti-Flag pull down) or by boiling the beads at 98° C. for 10 min with 30 μL of 3× Laemmeli dye containing 6% βME (anti-HA pull down). The sample was subjected to SDS-PAGE and transferred to a PVDF membrane for western blot analysis described above.
Cells were grown and transfected as described above. After T-REX™ delivery, cells were harvested and lysed in 100-200 μL (˜1.5×10^6 cells) of lysis buffer [containing in final concentrations 50 mM HEPES (pH 7.6), 300 nM Biotin K63-TUBE, 150 mM NaCl, 5 mM EDTA, 3 mM 1,10-phenanthroline, 5 mM NEM, 20 μM PR-619, 1% Nonidet P-40 and 1× Roche cOmplete, mini, EDTA-free protease inhibitor cocktail] according to manufactures' manual (Biotin K63 TUBE, Lifesensors). Lysate was clarified by centrifugation at 18,000×g for 10 min at 4° C. Total protein concentration was determined using Bradford assay using BSA as standard. […]

γ-H2AX [4] = assay: γ-H2AX immunofluorescence in HEK293T cells; type: cell-based, human
Method: Cells were grown to 70% confluence in 35 mm glass-bottomed dishes and transfected with HaloTagged plasmids. T-REX™ delivery was performed as mentioned above. […] The fixative was aspirated and the cells washed three times with 1×DPBS with 5-min incubation at room temperature. Blocking and permeabilization was performed in one-step by incubation at 37° C. for 1 h in 1×DPBS containing 3% BSA and 0.2% Triton X-100. Cells were subsequently incubated with primary antibody (1:300, Table 4) in incubation buffer (1% BSA, 0.02% Triton X-100 in 1×DPBS) for 2 h at room temperature. Cells were rinsed 3 times with 1×DPBS with 5 min incubation for each wash and subsequently incubated in dark for 1 h at room temperature with corresponding second antibody (1:1000, Table 4) in incubation buffer. Cells were rinsed 3 times with 1×DPBS with 5 min incubation for each rinse. DAPI (Sigma) was freshly prepared in 1×DPBS from 2 mg/mL wt./v stock solution in water and added to the wells at the final concentration of 0.2 μg/mL. The samples were incubated in dark for 1 min and washed once with 1×DPBS and stored at 4° C. in dark till images were taken using a Zeiss LSM 710 meta confocal fluorescence microscope. Image analysis was performed using Image-J (NIH).

zebrafish embryos = assay: Zebrafish embryo morphology and survival, stereomicroscope; type: in vivo, zebrafish (Danio rerio)
Source text: Fish were then dechorionated, deyolked, lysed and HNEylated proteins were captured by Click coupling with biotin-azide and subsequent streptavidin pulldown (see workflow in FIG. 4A, Clicking with biotin-azide). HNEylation of Ube2V2 in fish also led to polyubiquitination of Ube2V2, indicating mechanistic conservation between fish and humans, and functional relevance of this electrophile regulatory pathway in vivo. Also see FIG. 14C. […] After 36-h fish were dechorionated and imaged using a stereomicroscope. Scale bars, 545 μm.
as §1, with “Embryos were left for 8 h at which point they were euthanized, washed with cold 1×DPBS and dechorionated (and deyolked if protein analysis was to be undertaken).” left out

Ube2N = assay: Lentiviral shRNA knockdown of Ube2N, western blot; type: cell-based, human
Method: HEK293T packaging cells were seeded and grown overnight in antibiotic free media in 6 well plates. At 80% confluence, each well was transfected with packaging plasmid (pCMV-R8.74psPAX2, 500 ng), envelope plasmid (pCMV-VSV-G, 50 ng) and pLKO vector (500 ng) using TransIT.LT1 as per the manufacturer's protocol. After 18 h, media were removed and replaced with 20% serum containing media. After 24 h, media containing viruses were collected, spun down and passed through a 0.6 micron filter and stored at −80° C. or used directly.
Cells in log phase were treated with 0.6 ml of virus supernatant (from above) in 8 μg/ml polybrene in a total of 6 ml of media in a 6-well plate. After 24 h, media were removed and replaced with media containing 2 μg/ml puromycin (which was completely toxic to all lines used in this study). Cells were cultured until the plate was confluent, then cells were split and moved to a 10 cm dish in 2 μg/ml puromycin containing media and grown again until reaching confluence. At this, the line was considered to be “selected”, and target gene expression was analyzed by western blot and compared to shRNA controls. […]
Cells were lysed in 1×RIPA buffer containing in final concentrations 1× Protease inhibitor, 1 mM sodium orthovanadate and 1 mM PMSF, by rapid freeze-thaw (×3). […] Protein concentration was determined using Bradford assay. […]

With `C#CCCCC(O)C=CC=O` (stereo not drawn) [HNE(alkyne), 4-hydroxynonenal alkyne] as the compound, how does the stability [1] read?
The stability was “highly unstable to air-oxidation and polymerization”.

With `C#CCCCC(O)/C=C/COc1c(CC(=O)NCCOCCOCCCCCCCl)ccc2c1C(=O)c1ccccc1C2=O` (stereo not drawn) [Ht-PreHNE] as the compound, how does the “γ-H2AX levels in zebrafish embryos” value (γ-H2AX [2]) read?
Its value is “regulates γ-H2AX levels in zebrafish”.

What about the FRET signal (PTEN; T-REX on Halo-PTEN vs light alone) of the same compound?
The FRET signal was “selectively enhances FRET signal”.

And the “YFP:CFP emission ratio” value (PTEN; precursor treatment alone, no light)?
Its value is “did not perturb the emission ratio significantly”.

Which “pan cellular poly-Ub-pools” value ([3]; HEK293T) does the source give for `CC(C)C[C@@H](C=O)NC(=O)[C@H](CC(C)C)NC(=O)[C@H](CC(C)C)NC(=O)OCc1ccccc1` [MG132] (Cbz-Leu-Leu-Leu-aldehyde) here?
Its value is “elevated pan-Ub-pools”.

And the “amount of ubiquitinated-Ube2V2 formed upon targeted-HNEylation” value [3]?
Its value is “had no effect on the amount of ubiquitinated-Ube2V2”.

Which results are given for `CO[C@@]12[C@H](COC(N)=O)C3=C(C(=O)C(C)=C(N)C3=O)N1C[C@@H]1N[C@@H]12` [Mitomycin-C]?
γ-H2AX in Ube2V2-C69S-expressing and Ube2N-deficient cells (γ-H2AX [4]): still upregulated γ-H2AX; γ-H2AX upregulation (γ-H2AX [4]; positive control): 3-4 fold; γ-H2AX levels in zebrafish embryos (γ-H2AX [2]): high level of γ-H2AX-expression relative to untreated fish; embryo deformity / death (zebrafish embryos): severely deformed or died during treatment

Which “K63-linked total cellular Ub pools” value ([3]; HEK293T) does the source give for `N#CSc1cc(SC#N)c(N)nc1N` [PR-619] here?
The value was “promoted elevation of K63-ubiquitination”.

And the “ubiquitination of Ube2V2 wt vs C69S” value ([3]; HEK293T)?
The value was “promote ubiquitination of Ube2V2(C69S) as efficiently as wt-Ube2V2”.

What does the source list for `CC(C)C[C@H](NC(=O)[C@H](Cc1ccccc1)NC(=O)c1cnccn1)B(O)O` [bortezomib]?
pan cellular poly-Ub-pools ([3]; HEK293T): elevated pan-Ub-pools; amount of ubiquitinated-Ube2V2 formed upon targeted-HNEylation [3]: had no effect on the amount of ubiquitinated-Ube2V2

Which Ube2N knockdown strength (Ube2N) does the source give for “#18: shRNA targeting Ube2N in pLKO1 vector (SEQ ID NO: 65) (CCGGGCTGAGGCATTTGTGAGTCTTCTCGAGAAGACTCACAAATGCCTCAGCTTTTT)” here?
The Ube2N knockdown strength was “weaker knockdown”.
